From US9937151B2, “Carbapenem antibacterials with gram-negative activity” (priority 2010, dated 2018)
Values after ≈ are worked out from the molar mass of the structure shown.

Test system: G(−) bacterial strains
Assay: Dilution antimicrobial susceptibility tests (MIC, NCCLS agar dilution / broth dilution)
Format: cell-based, Gram-negative organisms
Details: unit assumed
Procedure, shortened: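 Agar dilution on Mueller-Hinton agar at 10^4 CFU/spot and broth dilution at 5×10^5 CFU/well, per NCCLS M7-A5. Streptococci tested on Mueller-Hinton agar with 5% sheep blood. MIC taken as minimum inhibitory concentration; ATCC control strains run alongside.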

[1] = strain #1 Acinetobacter calcoaceticus
[2] = strain #2 Acinetobacter baumannii, Cf-R, Ci-R
[3] = strain #3 Acinetobacter baumannii, Cf-R, Ci-R, Mp-I
[4] = strain #4 Acinetobacter baumannii, Cf-R, Imp-I, CBPase
[5] = strain #7 Enterobacter aerogenes
[6] = strain #8 Enterobacter cloacae, Cf-R, B+
[7] = strain #9 Enterobacter cloacae, Cf-R
[8] = strain #10 Escherichia coli, Ci-R
[9] = strain #11 Escherichia coli, Ci-R, AmpC
[10] = strain #15 Klebsiella pneumoniae
[11] = strain #16 Moraxella catarrhalis
[12] = strain #21 Providencia rettgeri
[13] = strain #22 Salmonella typhimurium
[14] = strain #25 Shigella dysenteriae
[15] = strain #28 Stenotrophomonas maltophilia
[16] = strain #29 Pseudomonas aeruginosa
[17] = strain #30 Pseudomonas aeruginosa
[18] = strain #31 Pseudomonas aeruginosa, Ofx-R
[19] = strain #32 Pseudomonas aeruginosa, Cf-R
[20] = strain #33 Pseudomonas aeruginosa, Ci-R
[21] = strain #34 Pseudomonas aeruginosa, Gen-R
[22] = strain #35 Pseudomonas aeruginosa, Ip-R
[23] = strain #36 Pseudomonas aeruginosa, Cf-R, Ci-R, Mp-R

SMILES | MIC [1] | MIC [2] | MIC [3] | MIC [4] | MIC (strain #5 Citrobacter diversus) | MIC (strain #6 Citrobacter freundii) | MIC [5] | MIC [6] | MIC [7] | MIC [8] | MIC [9] | MIC (strain #12 Escherichia coli) | MIC (strain #13 Escherichia coli) | MIC (strain #14 Klebsiella oxytoca) | MIC [10] | MIC [11] | MIC (strain #17 Morganella Morganii) | MIC (strain #18 Morganella Morganii) | MIC (strain #19 Proteus vulgaris) | MIC (strain #20 Proteus mirabilis) | other results
C[C@@H](O)C1C(=O)N2C(C(=O)O)=C(CN3CC[C@H](NCC(N)=O)C3)[C@H](C)C12 (stereo partly drawn) [Compound 83] | 2 µg/mL (≈ 5.46 µM) | 4 µg/mL (≈ 10.9 µM) | 8 µg/mL (≈ 21.8 µM) | 8 µg/mL (≈ 21.8 µM) | 0.5 µg/mL (≈ 1.36 µM) | 1 µg/mL (≈ 2.73 µM) | 4 µg/mL (≈ 10.9 µM) | 0.5 µg/mL (≈ 1.36 µM) | 1 µg/mL (≈ 2.73 µM) | 0.5 µg/mL (≈ 1.36 µM) | 0.5 µg/mL (≈ 1.36 µM) | 0.5 µg/mL (≈ 1.36 µM) | 1 µg/mL (≈ 2.73 µM) | 2 µg/mL (≈ 5.46 µM) | 1 µg/mL (≈ 2.73 µM) | 0.031 µg/mL (≈ 0.0846 µM) | 8 µg/mL (≈ 21.8 µM) | 8 µg/mL (≈ 21.8 µM) | 4 µg/mL (≈ 10.9 µM) | 1 µg/mL (≈ 2.73 µM) | MIC [12]: 4 µg/mL (≈ 10.9 µM); MIC [13]: 1 µg/mL (≈ 2.73 µM); MIC (strain #23 Serratia marcescens): 2 µg/mL (≈ 5.46 µM); MIC (strain #24 Serratia marcescens): 2 µg/mL (≈ 5.46 µM); MIC [14]: 1 µg/mL (≈ 2.73 µM); MIC (strain #26 Shigella sonnei): 1 µg/mL (≈ 2.73 µM); MIC (strain #27 Shigella flexneri): 0.5 µg/mL (≈ 1.36 µM); MIC [15]: 1 µg/mL (≈ 2.73 µM); MIC [16]: 16 µg/mL (≈ 43.7 µM); MIC [17]: 16 µg/mL (≈ 43.7 µM); MIC [18]: 8 µg/mL (≈ 21.8 µM); MIC [19]: 16 µg/mL (≈ 43.7 µM); MIC [20]: 16 µg/mL (≈ 43.7 µM); MIC [21]: 32 µg/mL (≈ 87.3 µM); MIC [22]: 32 µg/mL (≈ 87.3 µM); MIC [23]: > 32 µg/mL
CN[C@H]1CCN(CC2=C(C(=O)O)N3C(=O)C([C@@H](C)O)C3[C@H]2C)C1 (stereo partly drawn) [Compound 43] | 0.5 µg/mL (≈ 1.55 µM) | 1 µg/mL (≈ 3.09 µM) | 4 µg/mL (≈ 12.4 µM) | 4 µg/mL (≈ 12.4 µM) | 0.25 µg/mL (≈ 0.773 µM) | 0.25 µg/mL (≈ 0.773 µM) | 1 µg/mL (≈ 3.09 µM) | 0.25 µg/mL (≈ 0.773 µM) | 0.5 µg/mL (≈ 1.55 µM) | 0.25 µg/mL (≈ 0.773 µM) | 0.25 µg/mL (≈ 0.773 µM) | 0.25 µg/mL (≈ 0.773 µM) | 0.25 µg/mL (≈ 0.773 µM) | 0.5 µg/mL (≈ 1.55 µM) | 0.5 µg/mL (≈ 1.55 µM) | ≤ 0.008 µg/mL | 2 µg/mL (≈ 6.18 µM) | 2 µg/mL (≈ 6.18 µM) | 1 µg/mL (≈ 3.09 µM) | 0.25 µg/mL (≈ 0.773 µM) | MIC [12]: 1 µg/mL (≈ 3.09 µM); MIC [13]: 0.5 µg/mL (≈ 1.55 µM); MIC (strain #23 Serratia marcescens): 1 µg/mL (≈ 3.09 µM); MIC (strain #24 Serratia marcescens): 1 µg/mL (≈ 3.09 µM); MIC [14]: 0.5 µg/mL (≈ 1.55 µM); MIC (strain #26 Shigella sonnei): 0.25 µg/mL (≈ 0.773 µM); MIC (strain #27 Shigella flexneri): 0.25 µg/mL (≈ 0.773 µM); MIC [15]: 0.5 µg/mL (≈ 1.55 µM); MIC [16]: 4 µg/mL (≈ 12.4 µM); MIC [17]: 2 µg/mL (≈ 6.18 µM); MIC [18]: 1 µg/mL (≈ 3.09 µM); MIC [19]: 4 µg/mL (≈ 12.4 µM); MIC [20]: 4 µg/mL (≈ 12.4 µM); MIC [21]: 4 µg/mL (≈ 12.4 µM); MIC [22]: 8 µg/mL (≈ 24.7 µM); MIC [23]: 16 µg/mL (≈ 49.5 µM)
CNC(=O)[C@H]1CCN(CC2=C(C(=O)O)N3C(=O)C([C@@H](C)O)C3[C@H]2C)C1 (stereo partly drawn) [Compound 127] | 1 µg/mL (≈ 2.85 µM) | 1 µg/mL (≈ 2.85 µM) | 4 µg/mL (≈ 11.4 µM) | 2 µg/mL (≈ 5.69 µM) | 0.5 µg/mL (≈ 1.42 µM) | 0.5 µg/mL (≈ 1.42 µM) | 2 µg/mL (≈ 5.69 µM) | 0.5 µg/mL (≈ 1.42 µM) | 1 µg/mL (≈ 2.85 µM) | 0.5 µg/mL (≈ 1.42 µM) | 0.5 µg/mL (≈ 1.42 µM) | 0.5 µg/mL (≈ 1.42 µM) | 0.5 µg/mL (≈ 1.42 µM) | 1 µg/mL (≈ 2.85 µM) | 1 µg/mL (≈ 2.85 µM) | ≤ 0.008 µg/mL | 4 µg/mL (≈ 11.4 µM) | 4 µg/mL (≈ 11.4 µM) | 2 µg/mL (≈ 5.69 µM) | 0.5 µg/mL (≈ 1.42 µM) | MIC [12]: 2 µg/mL (≈ 5.69 µM); MIC [13]: 0.5 µg/mL (≈ 1.42 µM); MIC (strain #23 Serratia marcescens): 1 µg/mL (≈ 2.85 µM); MIC (strain #24 Serratia marcescens): 2 µg/mL (≈ 5.69 µM); MIC [14]: 1 µg/mL (≈ 2.85 µM); MIC (strain #26 Shigella sonnei): 0.5 µg/mL (≈ 1.42 µM); MIC (strain #27 Shigella flexneri): 0.5 µg/mL (≈ 1.42 µM); MIC [15]: 0.5 µg/mL (≈ 1.42 µM); MIC [16]: 8 µg/mL (≈ 22.8 µM); MIC [17]: 8 µg/mL (≈ 22.8 µM); MIC [18]: 2 µg/mL (≈ 5.69 µM); MIC [19]: 8 µg/mL (≈ 22.8 µM); MIC [20]: 8 µg/mL (≈ 22.8 µM); MIC [21]: 8 µg/mL (≈ 22.8 µM); MIC [22]: 16 µg/mL (≈ 45.5 µM); MIC [23]: > 32 µg/mL
C[C@@H](O)C1C(=O)N2C(C(=O)O)=C(CN3CC[C@H](NC(N)=O)C3)[C@H](C)C12 (stereo partly drawn) [Compound 78] | 2 µg/mL (≈ 5.68 µM) | 2 µg/mL (≈ 5.68 µM) | 4 µg/mL (≈ 11.4 µM) | 4 µg/mL (≈ 11.4 µM) | 0.5 µg/mL (≈ 1.42 µM) | 0.5 µg/mL (≈ 1.42 µM) | 2 µg/mL (≈ 5.68 µM) | 0.5 µg/mL (≈ 1.42 µM) | 1 µg/mL (≈ 2.84 µM) | 0.5 µg/mL (≈ 1.42 µM) | 0.5 µg/mL (≈ 1.42 µM) | 0.5 µg/mL (≈ 1.42 µM) | 1 µg/mL (≈ 2.84 µM) | 1 µg/mL (≈ 2.84 µM) | 1 µg/mL (≈ 2.84 µM) | 0.016 µg/mL (≈ 0.0454 µM) | 8 µg/mL (≈ 22.7 µM) | 4 µg/mL (≈ 11.4 µM) | 4 µg/mL (≈ 11.4 µM) | 1 µg/mL (≈ 2.84 µM) | MIC [12]: 4 µg/mL (≈ 11.4 µM); MIC [13]: 1 µg/mL (≈ 2.84 µM); MIC (strain #23 Serratia marcescens): 2 µg/mL (≈ 5.68 µM); MIC (strain #24 Serratia marcescens): 2 µg/mL (≈ 5.68 µM); MIC [14]: 1 µg/mL (≈ 2.84 µM); MIC (strain #26 Shigella sonnei): 1 µg/mL (≈ 2.84 µM); MIC (strain #27 Shigella flexneri): 0.5 µg/mL (≈ 1.42 µM); MIC [15]: 1 µg/mL (≈ 2.84 µM); MIC [16]: 8 µg/mL (≈ 22.7 µM); MIC [17]: 8 µg/mL (≈ 22.7 µM); MIC [18]: 2 µg/mL (≈ 5.68 µM); MIC [19]: 16 µg/mL (≈ 45.4 µM); MIC [20]: 16 µg/mL (≈ 45.4 µM); MIC [21]: 16 µg/mL (≈ 45.4 µM); MIC [22]: 16 µg/mL (≈ 45.4 µM); MIC [23]: > 32 µg/mL
C[C@@H](O)C1C(=O)N2C(C(=O)O)=C(CN3CC[C@H](C#N)C3)[C@H](C)C12 (stereo partly drawn) [Compound 7] | 4 µg/mL (≈ 12.5 µM) | 2 µg/mL (≈ 6.26 µM) | 4 µg/mL (≈ 12.5 µM) | 4 µg/mL (≈ 12.5 µM) | 0.063 µg/mL (≈ 0.197 µM) | 0.13 µg/mL (≈ 0.407 µM) | 0.5 µg/mL (≈ 1.57 µM) | 0.13 µg/mL (≈ 0.407 µM) | 0.25 µg/mL (≈ 0.783 µM) | 0.13 µg/mL (≈ 0.407 µM) | 0.13 µg/mL (≈ 0.407 µM) | 0.13 µg/mL (≈ 0.407 µM) | 0.13 µg/mL (≈ 0.407 µM) | 0.25 µg/mL (≈ 0.783 µM) | 0.25 µg/mL (≈ 0.783 µM) | ≤ 0.008 µg/mL | 1 µg/mL (≈ 3.13 µM) | 1 µg/mL (≈ 3.13 µM) | 0.5 µg/mL (≈ 1.57 µM) | 0.13 µg/mL (≈ 0.407 µM) | MIC [12]: 0.5 µg/mL (≈ 1.57 µM); MIC [13]: 0.13 µg/mL (≈ 0.407 µM); MIC (strain #23 Serratia marcescens): 0.25 µg/mL (≈ 0.783 µM); MIC (strain #24 Serratia marcescens): 0.5 µg/mL (≈ 1.57 µM); MIC [14]: 0.25 µg/mL (≈ 0.783 µM); MIC (strain #26 Shigella sonnei): 0.13 µg/mL (≈ 0.407 µM); MIC (strain #27 Shigella flexneri): 0.13 µg/mL (≈ 0.407 µM); MIC [15]: 0.5 µg/mL (≈ 1.57 µM); MIC [16]: 16 µg/mL (≈ 50.1 µM); MIC [17]: 8 µg/mL (≈ 25.1 µM); MIC [18]: 2 µg/mL (≈ 6.26 µM); MIC [19]: 8 µg/mL (≈ 25.1 µM); MIC [20]: 8 µg/mL (≈ 25.1 µM); MIC [21]: 8 µg/mL (≈ 25.1 µM); MIC [22]: 32 µg/mL (≈ 100 µM); MIC [23]: > 32 µg/mL
